Columns and labels:
[1] = biological target: T1, Human ENT2 (Homo sapiens, UniProt Q14542); experiment: Adenosine uptake assay, ENT2-mediated transport in MDCKII cells; assay type: cell-based; settings: MDCKIIENT2-LV cells, probe adenosine 0.5 μM, pre-incubation 30 min, incubation 10 min
T1 construct: expressed in transfected cells
T1 sequence (Q14542 1-456): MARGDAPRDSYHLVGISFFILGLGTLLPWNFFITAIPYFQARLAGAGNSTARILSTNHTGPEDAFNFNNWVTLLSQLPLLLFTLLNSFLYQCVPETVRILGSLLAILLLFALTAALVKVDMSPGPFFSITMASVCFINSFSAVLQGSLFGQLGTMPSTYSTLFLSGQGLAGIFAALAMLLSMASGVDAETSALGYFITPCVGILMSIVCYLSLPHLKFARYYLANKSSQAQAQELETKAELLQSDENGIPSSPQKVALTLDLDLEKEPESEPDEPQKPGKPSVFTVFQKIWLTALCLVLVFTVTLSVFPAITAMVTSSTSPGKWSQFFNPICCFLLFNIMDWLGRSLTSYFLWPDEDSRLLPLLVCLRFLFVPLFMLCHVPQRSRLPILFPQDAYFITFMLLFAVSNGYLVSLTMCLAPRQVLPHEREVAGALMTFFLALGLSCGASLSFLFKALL
Protocol: The goal of this study was to determine the potency and selectivity of ENT1 inhibitors by measuring ENT1 and ENT2-mediated transport using an in vitro cellular uptake assay.
Human ENT1 and ENT2 transporters were stably expressed in Madin-Darby Canine Kidney II (MDCKII) cells via transduction. Cell lines overexpressing the relevant ENT1 or ENT2 molecules were preincubated with a dose range of the relevant compound for 30 minutes before introduction of the specific substrate at the concentration indicated in the Table assay parameters below. The transporter assay was conducted for the time specified in the Table assay parameters before the specific uptake of the substrate into the cells was quantified. Specific uptake was determined by comparing the uptake from the cells treated with the relevant compounds and the uptake by cells not overexpressing the transporter in question.
Specific uptake for each concentration of the test sample was normalized to the DMSO control value to generate a relative accumulation value (or relative transporter activity). Data were plotted against the log molar concentration of the test reagent used. IC50 values were generated with Prism version 9.4.1 and the following function: log(inhibitor) vs. response—Variable slope (four parameters).

[2] = test system: stimulated primary human T cells; experiment: T cell proliferation assay, Condition A (X-VIVO15); assay type: cell-based; settings: Homo sapiens, T-cell, 96 h; Condition A: X-VIVO15 medium; anti-CD3/anti-CD28 beads, ATP, 4 days; CFSE-lo T cells
In short: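 CFSE-labelled human CD3+ T cells (2×10^4/well) in serum-free X-VIVO15 were activated with anti-CD3/CD28 beads (1 bead:2 cells), pre-incubated 30 min with inhibitor, then cultured with 100 uM ATP for 4 days at 37 °C. Flow cytometry measured %CFSE^lo cells, and IC50/IC90 came from log-concentration curve fits.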

Row | SMILES | IC50 [1] [nM] | IC50 [2] [nM]
1 | C[C@H]1O[C@@H](n2c(NC3CCOCC3)nc3c(OCc4ccc(C#N)cc4)ncnc32)[C@H](O)[C@@H]1O [Compound 73] | 20 to 1000 | < 1
2 | C[C@H]1O[C@@H](n2c(N[C@H]3CCC(F)(F)C3)nc3c(OCc4ccc(C#N)cc4)ncnc32)[C@H](O)[C@@H]1O [Compound 82] | 20 to 1000 | < 1
3 | C[C@H]1O[C@@H](n2c(NC3CCOCC3)nc3c(OCc4ccc(OC(F)F)nc4)ncnc32)[C@H](O)[C@@H]1O [Compound 75] | 20 to 1000 | < 1
4 | C[C@H]1O[C@@H](n2c(NC3CCCC3)nc3c(OCc4ccc([N+](=O)[O-])cc4)ncnc32)[C@H](O)[C@@H]1O [Compound 6] | 20 to 1000 | < 1
5 | C[C@H]1O[C@@H](n2cnc3c(OCc4ccc([N+](=O)[O-])cc4)ncnc32)[C@H](O)[C@@H]1O [Compound 166] | > 1000 | 1 to 20
6 | C[C@H]1O[C@@H](n2cnc3c(N4CCc5ccc([N+](=O)[O-])cc5C4)ncnc32)[C@H](O)[C@@H]1O [Compound 151] | > 1000 | < 1
7 | C[C@H]1O[C@@H](n2cnc3c(OCc4ccc(OC(F)F)cc4)ncnc32)[C@H](O)[C@@H]1O [Compound 173] | > 1000 | 1 to 20
8 | C[C@H]1O[C@@H](n2c(NC3CCC(O)CC3)nc3c(OCc4ccc([N+](=O)[O-])cc4)ncnc32)[C@H](O)[C@@H]1O (some centres unmarked) [Compound 28] | > 1000 | < 1
9 | C[C@H]1O[C@@H](n2cnc3c(SCc4ccc([N+](=O)[O-])cc4)ncnc32)[C@H](O)[C@@H]1O [Compound 147] | > 1000 | 1 to 20
10 | OCCOC[C@H]1O[C@@H](n2cnc3c(OCc4ccc(OC(F)(F)F)cc4)ncnc32)[C@H](O)[C@@H]1O [Compound 175] | > 1000 | 1 to 20

— patent publication US20260184712A1, “Heterocyclic Compounds as ENT Inhibitors and Compounds for Use in the Treatment of Cancers” (iTeos Belgium SA, priority 2022, published 2026)
